# Measurements as given in patent US10457687B2, “Aminoacid derivatives, a process for their preparation and pharmaceutical compositions containing them” (LES LABORATOIRES SERVIER, priority 2015, dated 2019).
# Target: Mcl-1 protein (Homo sapiens, UniProt Q07820)
# Assay: Inhibition of Mcl-1 by the fluorescence polarisation technique (Method 1 or Method 2)
# Format: binding
# Settings: fluorescence polarisation, Fluorescein labelled ligand; Method 1 (not underlined) or Method 2 (underlined); read-out: IC50 (μM) Mcl-1 FP
# Procedure: The relative binding potency of each compound was determined via Fluorescence Polarisation (FP).
# An 11 point serial dilution of each compound was prepared in DMSO and 2 μl transferred into flat bottomed, low binding, 384-well plate (final DMSO concentration 5%). 38 μl of buffer (10 mM 4-(2-hydroxyethyl)-1-piperazineethanesulfonic acid [HEPES], 150 mM NaCl, 0.05% Tween 20, pH 7.4), containing the Fluorescein labelled ligand (final concentration 1 nM) and Mcl-1 protein (final concentration 5 nM) was then added.
# An 11 point serial dilution of each compound was prepared in DMSO and 2 μl transferred into flat bottomed, low binding, 384-well plate (final DMSO concentration 5%). 38 μl of buffer (20 mM Na2HPO4, 1 mM EDTA, 50 mM NaCl, pH 7.4), containing the Fluorescein labelled ligand (final concentration 10 nM) and Mcl-1 protein (final concentration 10 nM) was then added.
# Chain of Mcl-1 protein (Q07820 whole entry): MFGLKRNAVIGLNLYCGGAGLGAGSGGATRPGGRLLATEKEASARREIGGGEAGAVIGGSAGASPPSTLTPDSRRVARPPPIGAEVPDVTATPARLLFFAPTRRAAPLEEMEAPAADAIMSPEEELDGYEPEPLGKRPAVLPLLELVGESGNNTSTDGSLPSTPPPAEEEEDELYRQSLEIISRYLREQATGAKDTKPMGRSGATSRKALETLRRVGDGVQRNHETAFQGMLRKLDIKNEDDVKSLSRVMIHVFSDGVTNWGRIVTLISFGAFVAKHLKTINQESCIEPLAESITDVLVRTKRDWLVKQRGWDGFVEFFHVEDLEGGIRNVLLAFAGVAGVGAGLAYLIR
row,SMILES,IC50 [µM]
1,"CCc1sc2ncnc(NC(Cc3ccccc3)C(=O)O)c2c1-c1cccc2ccn(C)c12 [Example 84, N-[6-ethyl-(5Ra)-5-(1-methyl-1H-indol-7-yl)thieno[2,3-d]pyrimidin-4-yl]-D-phenylalanine]",4.02
2,"C=C(C)c1sc2ncnc(NC(Cc3ccccc3)C(=O)O)c2c1-c1cccc2ccccc12 [Example 106, N-[(5Sa)-5-(naphthalen-1-yl)-6-(prop-1-en-2-yl)thieno[2,3-d]pyrimidin-4-yl]-D-phenylalanine]",0.065
3,"CCc1sc2ncnc(NC(Cc3ccccc3)C(=O)O)c2c1-c1cccc2c1c(Cl)cn2CCCN1CCN(C)CC1 [Example 240, N-((5Sa)-5-{3-chloro-1-[3-(4-methylpiperazin-1-yl)propyl]-1H-indol-4-yl}-6-ethyl-thieno[2,3-d]pyrimidin-4-yl)-D-phenylalanine]",0.958
4,"CCc1sc2ncnc(N[C@H](Cc3ccccc3)C(=O)O)c2c1-c1cccc2cc[nH]c12 (single isomer, unassigned) [Example 72, N-[6-ethyl-5-(1H-indol-7-yl)thieno[2,3-d]pyrimidin-4-yl]-D-phenylalanine]",12
5,"CCc1sc2ncnc(NC(Cc3ccccc3)C(=O)O)c2c1-c1cccc(Br)c1C [Example 97, N-[(5Sa)-5-(3-bromo-2-methylphenyl)-6-ethylthieno[2,3-d]pyrimidin-4-yl]-D-phenylalanine]",0.073
6,"CCc1sc2ncnc(N[C@H](Cc3ccccn3)C(=O)O)c2c1-c1cccc2ccccc12 [Example 191, N-[6-ethyl-5-(naphthalen-1-yl)thieno[2,3-d]pyrimidin-4-yl]-3-pyridin-2-yl-D-alanine]",0.171
7,"CCc1sc2ncnc(NC(CC3CCCCC3)C(=O)O)c2c1-c1cccc2ccccc12 [Example 165, 3-cyclohexyl-N-[6-ethyl-(5Ra)-5-(naphthalen-1-yl)thieno[2,3-d]pyrimidin-4-yl]-D-alanine]",0.315
8,"CCc1sc2ncnc(NC(Cc3ccccc3O)C(=O)O)c2c1-c1cccc2ccccc12 [Example 175, N-[6-ethyl-(5Ra)-5-(naphthalen-1-yl)thieno[2,3-d]pyrimidin-4-yl]-2-hydroxy-D-phenylalanine]",3.86
9,"CCc1sc2ncnc(NC(Cc3ccccc3)C(=O)O)c2c1-c1cccc2cnn(C)c12 [Example 88, N-[6-ethyl-(5Sa)-5-(1-methyl-1H-indazol-7-yl)thieno[2,3-d]pyrimidin-4-yl]-D-phenylalanine]",1.23
10,"CC#Cc1sc2ncnc(NC(Cc3ccccc3OCc3ccnc(-c4ccccc4OC)n3)C(=O)O)c2c1-c1ccc(OCCN2CCN(C)CC2)c(Cl)c1C [Example 45, N-[(5Sa)-5-{3-chloro-2-methyl-4-[2-(4-methylpiperazin-1-yl)ethoxy]phenyl}-6-(prop-1-yn-1-yl)thieno[2,3-d]pyrimidin-4-yl]-2-{[2-(2-methoxyphenyl)pyrimidin-4-yl]methoxy}-D-phenylalanine]",0.005
11,"CCc1sc2ncnc(NC(Cc3ccc(F)cc3)C(=O)O)c2c1-c1cccc2ccccc12 [Example 176, N-[6-ethyl-(5Ra)-5-(naphthalen-1-yl)thieno[2,3-d]pyrimidin-4-yl]-4-fluoro-D-phenylalanine]",8.41
12,"CC(C)c1sc2ncnc(N[C@H](Cc3ccccc3)C(=O)O)c2c1-c1cccc2ccccc12 (single isomer, unassigned) [Example 202, N-[5-(naphthalen-1-yl)-6-(propan-2-yl)thieno[2,3-d]pyrimidin-4-yl]-D-phenylalanine]",0.751
13,"O=C(O)[C@@H](Cc1ccccc1)Nc1ncnc2sc(C(F)F)c(-c3cccc4ccccc34)c12 (single isomer, unassigned) [Example 207, N-[6-(difluoromethyl)-5-(naphthalen-1-yl)thieno[2,3-d]pyrimidin-4-yl]-D-phenylalanine]",0.136
14,"CCCCn1nccc1COc1ccccc1CC(Nc1ncnc2sc(-c3ccc(F)o3)c(-c3ccc(OCCN4CCN(C)CC4)c(Cl)c3C)c12)C(=O)O [Example 24, 2-[(1-butyl-1H-pyrazol-5-yl)methoxy]-N-[(5Sa)-5-{3-chloro-2-methyl-4-[2-(4-methylpiperazin-1-yl)ethoxy]phenyl}-6-(5-fluorofuran-2-yl)thieno[2,3-d]pyrimidin-4-yl]-D-phenylalanine]",0.008
15,"CCc1sc2ncnc(NC(Cc3ccccc3)C(=O)O)c2c1-c1cccc2c1c(Cl)cn2CCN1CCCCC1 [Example 235, N-((5Sa)-5-{3-chloro-1-[2-(piperidin-1-yl)ethyl]-1H-indol-4-yl}-6-ethyl-thieno[2,3-d]pyrimidin-4-yl)-D-phenylalanine]",1.39
16,"CCc1sc2ncnc(NC(Cc3ccccc3OCC(=O)N(C)C)C(=O)O)c2c1-c1cccc(Cl)c1C [Example 142, N-[(5Sa)-5-(3-chloro-2-methylphenyl)-6-ethylthieno[2,3-d]pyrimidin-4-yl]-2-[2-(dimethylamino)-2-oxoethoxy]-D-phenylalanine]",0.335
17,"CCc1sc2ncnc(NC(Cc3ccccc3)C(=O)O)c2c1-c1cncc2ccccc12 [Example 82, N-[6-ethyl-(5Ra)-5-(isoquinolin-4-yl)thieno[2,3-d]pyrimidin-4-yl]-D-phenylalanine]",1.11
18,"CCc1sc2ncnc(N[C@H](Cc3ccccc3)C(=O)O)c2c1-c1cccc2ccccc12 [Example 79, N-[6-ethyl-5-(naphthalen-1-yl)thieno[2,3-d]pyrimidin-4-yl]-D-phenylalanine]",0.429
19,"CCc1sc2ncnc(NC(Cc3ccccc3)C(=O)O)c2c1-c1cccc2c1c(Cl)cn2CCN1CCOCC1 [Example 237, N-((5Sa)-5-{3-chloro-1-[2-(morpholin-4-yl)ethyl]-1H-indol-4-yl}-6-ethyl-thieno[2,3-d]pyrimidin-4-yl)-D-phenylalanine]",0.569
20,"CCc1sc2ncnc(NC(CC3CCCCC3)C(=O)O)c2c1-c1cccc2ccccc12 [Example 166, 3-cyclohexyl-N-[6-ethyl-(5Sa)-5-(naphthalen-1-yl)thieno[2,3-d]pyrimidin-4-yl]-D-alanine]",0.064
21,"CCCc1sc2ncnc(NC(Cc3ccccc3)C(=O)O)c2c1-c1cccc2ccccc12 [Example 253, N-[(5Ra)-5-(naphthalen-1-yl)-6-propylthieno[2,3-d]pyrimidin-4-yl]-D-phenylalanine]",1.36
22,"CCc1sc2ncnc(N[C@H](CC3CCCCC3)C(=O)O)c2c1-c1cccc2[nH]ccc12 (single isomer, unassigned) [Example 243, 3-cyclohexyl-N-[6-ethyl-5-(1H-indol-4-yl)thieno[2,3-d]pyrimidin-4-yl]-D-alanine]",0.073

# Same assay, conditions: partial inhibitors; @ 10 μM test compound
row,SMILES,"percentage fluorescence polarisation inhibition, Mcl-1 FP [% @ 10 μM]"
1,"Cc1c(-c2c(-c3ccsc3)sc3ncnc(NC(Cc4ccccc4F)C(=O)O)c23)ccc(OCCN2CCN(C)CC2)c1Cl [Example 33, N-[(5Ra)-5-{3-chloro-2-methyl-4-[2-(4-methylpiperazin-1-yl)ethoxy]phenyl}-6-(thiophen-3-yl)thieno[2,3-d]pyrimidin-4-yl]-2-fluoro-D-phenylalanine]",54.9
2,"CCc1sc2ncnc(N[C@@H](Cc3ccccc3)C(=O)O)c2c1-c1ccc(OCCN(C)C)c(Cl)c1C [Example 58, N-((5Ra)-5-{3-chloro-4-[2-(dimethylamino)ethoxy]-2-methylphenyl}-6-ethylthieno[2,3-d]pyrimidin-4-yl)-L-phenylalanine]",52.8

# Same assay, conditions: partial inhibitors; @ 50 μM test compound
row,SMILES,"percentage fluorescence polarisation inhibition, Mcl-1 FP [% @ 50 μM]"
1,"CCc1sc2ncnc(N[C@H](Cc3ccccc3C(F)(F)F)C(=O)O)c2c1-c1cccc(Cl)c1C [Example 137, N-[(5Ra)-5-(3-chloro-2-methylphenyl)-6-ethylthieno[2,3-d]pyrimidin-4-yl]-2-(trifluoromethyl)-D-phenylalanine]",71.05
2,"Cc1c(Cl)cccc1-c1c(C(C)C)sc2ncnc(N[C@@H](Cc3ccccc3)C(=O)O)c12 [Example 218, N-[(5Sa)-5-(3-chloro-2-methylphenyl)-6-(propan-2-yl)thieno[2,3-d]pyrimidin-4-yl]-L-phenylalanine]",71.5
3,"CCc1sc2ncnc(N[C@H](Cc3ccccc3)C(=O)O)c2c1-c1cccc2c1c(Cl)cn2CCN(C)C [Example 231, N-((5Ra)-5-{3-chloro-1-[2-(dimethylamino)ethyl]-1H-indol-4-yl}-6-ethyl-thieno[2,3-d]pyrimidin-4-yl)-D-phenylalanine]",56.75

# Same assay, conditions: partial inhibitors; @ 66.7 μM test compound
row,SMILES,"percentage fluorescence polarisation inhibition, Mcl-1 FP [% @ 66.7 μM]"
1,"CCc1sc2ncnc(NC(Cc3ccccn3)C(=O)O)c2c1-c1cccc(Cl)c1C [Example 151, N-[(5Ra)-5-(3-chloro-2-methylphenyl)-6-ethylthieno[2,3-d]pyrimidin-4-yl]-3-pyridin-2-yl-D-alanine]",71.3

# Same assay, conditions: partial inhibitors; @ 200 μM test compound
row,SMILES,"percentage fluorescence polarisation inhibition, Mcl-1 FP [% @ 200 μM]"
1,"CCc1sc2ncnc(NC(Cc3ccccc3)C(=O)OC)c2c1-c1cccc2ccccc12 [Example 255, methyl N-[6-ethyl-(5Ra)-5-(naphthalen-1-yl)thieno[2,3-d]pyrimidin-4-yl]-D-phenylalaninate]",41.08
2,"CC(C)(O)c1sc2ncnc(NC(Cc3ccccc3)C(=O)O)c2c1-c1cccc2ccccc12 [Example 209, N-[6-(2-hydroxypropan-2-yl)-(5Ra)-5-(naphthalen-1-yl)thieno[2,3-d]pyrimidin-4-yl]-D-phenylalanine]",56.85

# Same assay, conditions: partial inhibitors; @ 200 μM test compound; read-out: percentage fluorescence polarisation inhibition, Mcl-1 FP
row,SMILES,inhibition at 200 µM [%]
1,"CCc1sc2ncnc(N[C@H](Cc3ccccc3)C(=O)O)c2c1-c1cccc2cccnc12 [Example 99, N-[6-ethyl-5-(quinolin-8-yl)thieno[2,3-d]pyrimidin-4-yl]-D-phenylalanine]",28.3
